Experimental data published in patent publication EP0008888A1, “Beta-lactam antibacterial compounds, their preparation and pharmaceutical compositions containing them” (BEECHAM GROUP PLC, priority 1978, dated 1980).
≈ marks a conversion by molar mass, not a printed value. Where two headings read alike, the source gives them in different places.

Key:
Experiment in all cases: MIC in a standard test
Assay type in all cases: cell-based
Citrobacter freundii E8 = system: Citrobacter freundii E8
[1] = system: Salmonella typhimurium CT10; conditions: Salmonella enterica
[2] = system: Staphylococcus aureus Russell
Escherichia coli 0111 = system: Escherichia coli 0111
Escherichia coli JT39 = system: Escherichia coli JT39
Enterobacter cloacoae N1 = system: Enterobacter cloacoae N1
Proteus vulgaris WO91 = system: Proteus vulgaris WO91
Pseudomonas aeruginosa A = system: Pseudomonas aeruginosa A
Proteus morganii I580 = conditions: Morganella morganii
Serratia marcescens US20 = system: Serratia marcescens US20
[3] = system: Streptococcus pyogenes CN10
Klebsiella aerogenes A = system: Klebsiella aerogenes A
Proteus mirabilis C977 = system: Proteus mirabilis C977
Streptococcus faecalis I = conditions: Enterococcus faecalis
[4] = system: Staphylococcus aureus Oxford
Shigella sonnei MB 11967 = conditions: MB11967
[5] = system: Streptococcus pneumoniae CN33
Proteus rettgeri WM16 = conditions: Providencia rettgeri
[6] = system: Staphylococcus aureus 1517
Bacillus subtilis A = system: Bacillus subtilis A
[7] = standard test, Escherichia coli JT39, read-out: MIC

SMILES | MIC (Citrobacter freundii E8) | MIC [1] | MIC [2] | MIC (Escherichia coli 0111) | MIC (Enterobacter cloacoae N1) | MIC (Proteus vulgaris WO91) | MIC (Pseudomonas aeruginosa A) | MIC (Proteus morganii I580) | MIC (Serratia marcescens US20) | MIC [3] | MIC (Klebsiella aerogenes A) | MIC (Proteus mirabilis C977) | MIC (Streptococcus faecalis I) | MIC [4] | MIC (Shigella sonnei MB 11967) | MIC [5] | MIC (Proteus rettgeri WM16) | MIC [6] | MIC (Bacillus subtilis A) | MIC (Escherichia coli JT39; [7]) | other results
CNC(=O)OCCSC1=C(C(=O)[O-])N2C(=O)CC2C1.[Na+] (stereo not shown) [Example 37, Sodium 3-(2-methylcarbamoyloxyethylthio)-7-oxo-1-azabicyclo [3.2.0]hept-2-ene-2-carboxylate] | 1.6 µg/mL | 0.8 µg/mL | 12.5 µg/mL | 0.8 µg/mL | 1.6 µg/mL | 12.5 µg/mL | > 50 µg/mL | 12.5 µg/mL | 6.2 µg/mL | ≤ 0.2 µg/mL | 0.4 µg/mL | 1.6 µg/mL | 25 µg/mL | 1.6 µg/mL | 0.8 µg/mL | ≤ 0.2 µg/mL | 12.5 µg/mL | > 50 µg/mL | 0.8 µg/mL |  | MIC (Escherichia coli JT39; Escherichia coli, JT39): 6.2 µg/mL
NCCSC1=C(C(=O)O)N2C(=O)CC2C1 (stereo not shown) [Example 15, 3-Aminoethylthio-7-oxo-1-azabicyclo[3.2.0]hept-2-ene-2-carboxylic acid] | 3.1 µg/mL (≈ 13.6 µM) | 3.1 µg/mL (≈ 13.6 µM) | > 3.1 µg/mL | 3.1 µg/mL (≈ 13.6 µM) | 3.1 µg/mL (≈ 13.6 µM) | 25 µg/mL (≈ 110 µM) | 6.2 µg/mL (≈ 27.2 µM) | 25 µg/mL (≈ 110 µM) | 6.2 µg/mL (≈ 27.2 µM) | 0.4 µg/mL (≈ 1.75 µM) | 1.6 µg/mL (≈ 7.01 µM) | 25 µg/mL (≈ 110 µM) | 25 µg/mL (≈ 110 µM) | 0.8 µg/mL (≈ 3.5 µM) | 3.1 µg/mL (≈ 13.6 µM) | 0.2 µg/mL (≈ 0.876 µM) | 25 µg/mL (≈ 110 µM) |  | 0.8 µg/mL (≈ 3.5 µM) | 1.6 µg/mL (≈ 7.01 µM) | 
CCSC1=C(C(=O)O)N2C(=O)[C@@H](C)[C@H]2C1 (relative stereo) [Example 79, Sodium 3 - ethylthio-6β - methyl - 7 - oxo - 1 - azabicyclo [3.2 .O] hept - 2 - ene - 2 - carboxylate] | 6.2 µg/mL | 3.1 µg/mL | 6.2 µg/mL | 6.2 µg/mL | 6.2 µg/mL | 25 µg/mL | > 50 µg/mL | 25 µg/mL | 12.5 µg/mL | 3.1 µg/mL | 3.1 µg/mL | 6.2 µg/mL | > 50 µg/mL | 3.1 µg/mL | 3.1 µg/mL | 0.8 µg/mL | 25 µg/mL | > 50 µg/mL | 6.2 µg/mL | 6.2 µg/mL | 
CCSC1=C(C(=O)OC2OC(=O)c3ccccc32)N2C(=O)C[C@H]2C1 (stereo partly shown) [Example 9, Phthalidyl 3-ethylthio-7-oxo-1-azabicyclo[3.2.0]hept-2-ene-2-carboxylate] | 12.5 µg/mL (≈ 36.2 µM) | 12.5 µg/mL (≈ 36.2 µM) | > 50 µg/mL | 12.5 µg/mL (≈ 36.2 µM) |  | > 50 µg/mL | > 50 µg/mL | 25 µg/mL (≈ 72.4 µM) | 50 µg/mL (≈ 145 µM) | 12.5 µg/mL (≈ 36.2 µM) | 12.5 µg/mL (≈ 36.2 µM) | 25 µg/mL (≈ 72.4 µM) | > 50 µg/mL | > 50 µg/mL | 12.5 µg/mL (≈ 36.2 µM) |  | > 50 µg/mL | > 50 µg/mL | 25 µg/mL (≈ 72.4 µM) | > 50 µg/mL | 
COCCSC1=C(C(=O)O)N2C(=O)C[C@H]2C1 [Example 32, Sodium 3-(2-methxyethylthio)-7-oxo-1-azabicyclo[3.2.0] hept-2-ene-2-carboxylate] | 3.1 µg/mL | 3.1 µg/mL | 25 µg/mL | 3.1 µg/mL | 6.2 µg/mL | 50 µg/mL | > 100 µg/mL | 50 µg/mL | 12.5 µg/mL | 1.6 µg/mL | 1.6 µg/mL | 6.2 µg/mL | 50 µg/mL | 6.2 µg/mL | 3.1 µg/mL | ≤ 0.2 µg/mL | 50 µg/mL | > 50 µg/mL | 1.6 µg/mL | 6.2 µg/mL | 
CCSC1=C(C(=O)OCc2ccc([N+](=O)[O-])cc2)N2C(=O)[C@@H](CCN=[N+]=[N-])[C@H]2C1 (relative stereo) [Example 82, p - Nitrobenzyl - 6β-(2 - azidoethyl) - 3 - ethylthio - 7 - oxo - 1 - azabicyclo [3.2.O] hept-2 - ene - 2 - carboxylate] | 3.1 µg/mL (≈ 7.43 µM) | 3.1 µg/mL (≈ 7.43 µM) | 1.6 µg/mL (≈ 3.83 µM) | 1.6 µg/mL (≈ 3.83 µM) | 12.5 µg/mL (≈ 29.9 µM) | 12.5 µg/mL (≈ 29.9 µM) | > 50 µg/mL | 12.5 µg/mL (≈ 29.9 µM) | 12.5 µg/mL (≈ 29.9 µM) |  | 1.6 µg/mL (≈ 3.83 µM) | 12.5 µg/mL (≈ 29.9 µM) | 50 µg/mL (≈ 120 µM) | 0.8 µg/mL (≈ 1.92 µM) | 3.1 µg/mL (≈ 7.43 µM) |  | 6.2 µg/mL (≈ 14.9 µM) | 50 µg/mL (≈ 120 µM) | 1.6 µg/mL (≈ 3.83 µM) | 12.5 µg/mL (≈ 29.9 µM) | 
COC(=O)CCSC1=C(C(=O)O)N2C(=O)C[C@H]2C1 [Example 23, Potassium 3-(2-methoxycarbonylethvlthio)-7-oxo-l-azabicyclo[3.2.0]hept-2-ene-2-carboxylate] | 1.6 µg/mL | 3.1 µg/mL | 50 µg/mL | 1.6 µg/mL |  | 25 µg/mL | > 50 µg/mL | 25 µg/mL | 25 µg/mL | 0.8 µg/mL | 1.6 µg/mL | 12.5 µg/mL | > 50 µg/mL | 12.5 µg/mL |  | ≤ 0.2 µg/mL | 25 µg/mL | > 50 µg/mL | 3.1 µg/mL | 6.2 µg/mL | 
CCSC1=C(C(=O)OC2OC(=O)c3ccccc32)N2C(=O)[C@@H](CC)[C@H]2C1 (stereo partly drawn) [Example 75, Phthalidyl 6β-ethyl - 3-ethylthio - 7 - oxo - 1 - azabicyclo [3.2.0] hept - 2 - ene - 2-carboxylate] | 25 µg/mL (≈ 66.9 µM) | 12.5 µg/mL (≈ 33.5 µM) | 12.5 µg/mL (≈ 33.5 µM) | 25 µg/mL (≈ 66.9 µM) | 12.5 µg/mL (≈ 33.5 µM) | 50 µg/mL (≈ 134 µM) | > 50 µg/mL | 25 µg/mL (≈ 66.9 µM) | 50 µg/mL (≈ 134 µM) | 5 µg/mL (≈ 13.4 µM) | 25 µg/mL (≈ 66.9 µM) | 25 µg/mL (≈ 66.9 µM) | > 50 µg/mL | 5 µg/mL (≈ 13.4 µM) | 12.5 µg/mL (≈ 33.5 µM) | 1.2 µg/mL (≈ 3.21 µM) | 25 µg/mL (≈ 66.9 µM) | > 50 µg/mL | 5 µg/mL (≈ 13.4 µM) | 50 µg/mL (≈ 134 µM) | 
CSC1=C(C(=O)[O-])N2C(=O)CC2C1.[Na+] (stereo not shown) [Example 42, Sodium 3-methylthio-7-oxo-1-azabicyclo[3.2.0]hept-2-ene-2-carboxylate] | 1.6 µg/mL | 3.1 µg/mL | 12.5 µg/mL | 3.1 µg/mL | 3.1 µg/mL | 25 µg/mL | > 50 µg/mL | 25 µg/mL | 3.1 µg/mL | 0.8 µg/mL | 3.1 µg/mL | 25 µg/mL | > 50 µg/mL | 6.2 µg/mL | 3.1 µg/mL | ≤ 0.2 µg/mL | 25 µg/mL | > 50 µg/mL | 1.6 µg/mL |  | MIC (Escherichia coli JT39; Escherichia coli, JT39): 6.2 µg/mL
O=C(O)C1=C(SCc2ccccc2)C[C@@H]2CC(=O)N12 [Example 47, Sodium 3-benzylthio-7-oxo-1-azabicyclo[3.2.0]hept-2-ene-2-carboxvlate] | 25 µg/mL | 6.2 µg/mL | 6.2 µg/mL | 6.2 µg/mL | 12.5 µg/mL | > 50 µg/mL | > 50 µg/mL | 50 µg/mL | 50 µg/mL | 1.6 µg/mL | 6.2 µg/mL | 50 µg/mL | > 50 µg/mL | 6.2 µg/mL | 6.2 µg/mL | ≤ 0.2 µg/mL | > 50 µg/mL | > 50 µg/mL | 1.6 µg/mL | 50 µg/mL | 
